Test results reported in US10159725B2, “Composition of tumor-associated peptides and related anti-cancer vaccine for the treatment of gastric cancer and other cancers” (priority 2010, dated 2018).

Columns and labels:
CD8+ T cells = experiment: In vitro priming of CD8+ T cells with pMHC/anti-CD28 coated beads, multimer readout (in vitro immunogenicity); type: cell-based, human; settings: healthy HLA-A*24 donors, three stimulations; for Positive wells/wells tested [%]: at least 24 wells evaluable per peptide; for Positive donors/donors tested [%]: at least two donors evaluable per peptide
Description: In order to perform in vitro stimulations by artificial antigen presenting cells (aAPC) loaded with peptide-MHC complex (pMHC) and anti-CD28 antibody, we first isolated CD8 T cells from fresh HLA-A*24 leukapheresis products of healthy donors obtained from the Blood Bank Tuebingen.
Isolation of CD8+ lymphocytes was performed by positive selection using CD8 MicroBeads (Miltenyi Biotec, Bergisch-Gladbach, Germany).
Stimulations were initiated in 96-well plates by co-incubating 1×10^6 CD8+ T cells with 2×10^5 washed coated beads in 200 μl TCM supplemented with 5 ng/ml IL-12 (PromoCell) for 3-4 days at 37° C. Half of the medium was then exchanged by fresh TCM supplemented with 80 U/ml IL-2 and incubating was continued for 3-4 days at 37° C. This stimulation cycle was performed for a total of three times. […] For analysis, a BD LSRII SORP cytometer equipped with appropriate lasers and filters was used. Peptide specific cells were calculated as percentage of total CD8+ cells. Evaluation of multimeric analysis was done using the FLOWJO software (Tree Star, Oregon, USA). In vitro priming of specific multimer+ CD8+ lymphocytes was detected by appropriate gating and by comparing to negative control stimulations.

[1] = tested on: HLA-DR broad antigens (HLA-DR1 to DR7); experiment: ProImmune REVEAL MHC:peptide in vitro binding assay; parameters: species or system human; settings: relative to pass/fail control
Description: The ProImmune REVEAL™ technology employs in vitro HLA-DR assembly assays to determine the on-rates for the MHC:peptide complex as one major determinant of the binding constant of individual peptides. The assay was performed by ProImmune (Oxford, UK). At a fixed time point, the amount of intact MHC:peptide complexes is measured and compared with the amount for a pass/fail control (relative weak binder). A strong, promiscuous HLA-DR binder is included as positive control. Values indicate amount of binding for the individual peptides and HLA-DR molecules relative to the pass/fail control.
In this assay, binding was compared to that of a pass/fail control binder, and to a positive control peptide for each HLA-DR antigen.

[2] = tested on: anti-survivin T-cell response; experiment: T-cell response in vaccinated prostate carcinoma patients (IFN-g ELISPOT, +/-ICS); type: in vivo, human

| Sequence | Positive wells/wells tested [%] (CD8+ T cells) | Positive donors/donors tested [%] (CD8+ T cells) | in vitro binding to HLA-DR (in words) [1] | patients with induction of an anti-survivin T-cell response upon vaccination ([2]; among the 16 reacting patients of 19) | patients who reacted to the peptide (IFN-g ELISPOT, +/-ICS) ([2]; of the 19 patients vaccinated) |
| --- | --- | --- | --- | --- | --- |
| FYISPVNKL (listed as Homo sapiens) [AVL9-001] | 50% | 100% |  |  |  |
| TYGNLLDYL (listed as Homo sapiens) [ABL1-001] | 13% | 50% |  |  |  |
| TLGEFLKLDRERAKN (listed as Homo sapiens) [IMA-BIR-002] |  |  | promiscuous binding of IMA-BIR-002 to HLA-DR1, 3, 4 and 11 | 12 patients | 16 patients |
| SYNPLWLRI (listed as Homo sapiens) [ASPM-002] | 31% | 63% |  |  |  |
| VYGIRLEHF (listed as Homo sapiens) [NUF2-001] | 25% | 100% |  |  |  |
| NYLPFIMEL (listed as Homo sapiens) [UCHL5-001] | 14% | 75% |  |  |  |
| NYLLYVSNF (listed as Homo sapiens) [MST1R-001] | 14% | 50% |  |  |  |
| SYIDVLPEF (listed as Homo sapiens) [MET-006] | 22% | 63% |  |  |  |
| VWSDVTPLIF (VWSDVTPLTF; listed as Homo sapiens) [MMP11-001] | 11% | 33% |  |  |  |
| YYNAAGFNKL (listed as Homo sapiens) [UQCRB-001] | 38% | 100% |  |  |  |
| LYQILQGIVF (listed as Homo sapiens) [CDC2-001] | 28% | 88% |  |  |  |
| RFLSGIINF (listed as Homo sapiens) [NUF2-002] | 4% | 50% |  |  |  |
| AYLVYTDRL (listed as Homo sapiens) [PPAP2C-001] | 54% | 100% |  |  |  |
| VYIEKNDKL (listed as Homo sapiens) [ERBB3-001] | 15% | 83% |  |  |  |
| HYKPTPLYF (listed as Homo sapiens) [SMC4-001] | 9% | 75% |  |  |  |
| SYIIDPLNL (listed as Homo sapiens) [PROM1-001] | 26% | 83% |  |  |  |
